Measurements: article PMC11079064, “Discovery of a brain penetrant small molecule antagonist targeting LPA1 receptors to reduce neuroinflammation and promote remyelination in multiple sclerosis” (Scientific Reports, 2024)
“Also recorded” adds a separate entry of the source.

Experiments:
[1] = tested on: CC1+/OLIG2+ oligodendrocytes; assay: In vivo CC1 induction assay; design: species or system mouse; details: single 3 mg/kg dose, brains collected 5 days later
From the text: Sections were immunostained for the mature oligodendrocyte marker, CC1, and the oligodendroglial marker, OLIG2 to represent the total OPC/oligodendrocyte population.
Female C57Bl/6 mice (9–11 weeks old) were used in this experiment, n = 5/group. […] On day 5, mice were sacrificed and brains submerged in formalin. Tissue was sectioned at 40 µm on a sliding microtome (ThermoFisher, Microm HM450, Waltham, MA). Four sections per mouse were immunostained. Sections were permeabilized and blocked by incubation with 20% goat serum (Millipore Sigma, St. Louis, MO) and 0.2% Triton X-100 (Millipore Sigma, St. Louis, MO) in PBS. Oligodendrocytes were detected with a rat monoclonal antibody to Anti-APC (1:500, Calbiochem, San Diego, CA), and the total pool OPC/oligodendrocyte pool were detected with a rabbit monoclonal antibody to Olig-2 (1:500, Invitrogen, Carlsbad, CA). Alexa Fluor 594 and 647 IgG secondary antibodies against rat and rabbit (1:1000, Invitrogen, Carlsbad, CA) were used for primary antibody detection. Cell nuclei were identified with Hoechst (1:1000, Invitrogen, Carlsbad, CA). […] Detection and quantification of the cells were performed using NIS Elements imaging software (Nikon, Minato, Tokyo).
Supplemental Figure 5. […] Sections were immunostained using antibodies against CC1 (mature oligodendrocytes), Olig2 (oligodendroglial marker), and counterstained with Hoechst. […]

microglia = assay: LPA-induced microglial activation in hippocampal slices; assay type: cell-based, mouse; details: 3 µM, 10 µM LPA
Protocol: Microglial activation was then triggered by the addition of 10 µM LPA, slices incubated for 3 additional hours, then fixed. Slices were immunostained against IBA1 and microglial perimeters were measured as a mean of differentiating between ramified/resting versus rounded/activated microglia.
Brains were harvested from mice (postnatal day 20, Charles River). […] 400 µm thick coronal slices were cut on a McIlwain tissue chopper and returned to dissection media and separated manually. […] Slices were incubated for 2 h at 37 °C (4 slices per condition). Microglial activation was initiated by adding LPA (18:1, Avanti Polar Lipids) to a final concentration of 10 µM and incubated for 3 h. Slices were then fixed in formalin and for 2 h.
For immunohistochemistry, slices were washed for 3 × 15 min in 0.5% Triton-X100 and DPBS. Slices were then stained using IBA-1 antibody (Thermo Scientific) in 10% normal goat serum with 0.5% Triton-X100 in DPBS overnight on a rocker. Slices were then washed in 0.5% Triton-X100 in DPBS 3 × 15 min. Goat anti-mouse Alexa 564 (1:500, Invitrogen, Carlsbad, CA) and […] (Invitrogen, Carlsbad, CA) were diluted in DPBS with 0.5% Triton-X100 and incubated for 2h. Slices were washed 3 × 15 min in DPBS with 0.5% Triton-X100, mounted with Fluoromount and imaged on a Nikon A1R confocal microscope.

human LPA1 = target: T1, human LPA1 (Homo sapiens, UniProt Q92633); assay: Functional calcium mobilization assay; assay type: cell-based; details: 24 h pre-incubation prior to LPA addition; read-out: Functional LPA1 Ca^+2 mobilization
T1 construct: expressed in transfected cells
T1 sequence (Q92633 whole entry): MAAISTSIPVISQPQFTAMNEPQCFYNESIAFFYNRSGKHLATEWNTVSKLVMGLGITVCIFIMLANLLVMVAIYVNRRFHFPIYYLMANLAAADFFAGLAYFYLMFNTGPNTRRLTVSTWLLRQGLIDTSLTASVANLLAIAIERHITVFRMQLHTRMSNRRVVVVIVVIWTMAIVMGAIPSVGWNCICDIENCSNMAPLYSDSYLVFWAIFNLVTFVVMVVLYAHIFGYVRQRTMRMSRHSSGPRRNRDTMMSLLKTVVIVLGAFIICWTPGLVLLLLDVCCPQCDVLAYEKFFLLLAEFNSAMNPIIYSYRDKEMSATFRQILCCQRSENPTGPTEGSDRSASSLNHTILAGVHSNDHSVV
Protocol: Intracellular calcium was monitored with Fluo-4 (Molecular Devices). Dye was made up in HBSS with 0.1% (w/v) BSA and 2.5 mM probenecid. Plates were read using a FlexStation 3 (Molecular Devices, Sunnyvale, CA). Calcium response was generated by the simultaneous addition of the EC80 of LPA.
On the day of assay, media was removed and replaced with dye and 3× fresh compound in HBSS−/− with 0.1% BSA and incubated for 1 h.
30-min assay: Antagonists were added to plates after dye loading was complete at a 3× concentration in HBSS−/− with 0.1% BSA and incubated for 30 min.

[2] = tested on: human cortical slice cultures; assay: Human cortical slice culture, Mbp transcript by qPCR; assay type: cell-based; details: 9 days treatment; read-out: EC50 of Mbp increase by qPCR
Protocol: Cortical slices from regions containing both white and gray matter were generated from fresh human adult donor tissue and cultured for 10 days.
Human donor brain was received 14 h after death on wet ice. Upon receipt, the brain was immediately placed into-ice cold DPBS without calcium or magnesium. Cortical regions containing gray-white border were isolated then sliced on a McIlwain tissue chopper set at 400 µm thickness. […] Slices were then processed for qPCR or immunohistochemistry.
Evaluation of Mbp transcript in human brain slice culture: After compound treatment, slices were immediately transferred to lysis buffer and RNA extracted using the RNEasy Mini kit (Qiagen). Reverse transcription was performed using QScript (QuantaBio) followed by qPCR with Perfecta PCR SuperMix (QuantaBio) on a StepOne Plus Thermocycler (ABI). Primers used were as follows: 18S rRNA F: […] R: […]; Mbp: […] R: […]. Cycling parameters: 95 °C 30 s, then repeat 45×: 95 °C for 5 s, 60 °C for 15 s, followed by melt curve analysis. Data was calculated using 2^−ΔΔCt , normalizing to 18S RNA and vehicle.

`COc1ccc(NC(=O)N(c2ccccc2C(C)C)C2CCC(C(=O)O)CC2)c(OC(F)F)n1` (stereo not shown) [PIPE-791] was tested, and the “increase in CC1+/OLIG2+ oligodendrocytes” value [1] was 163%, the “effect on LPA-induced decrease in microglial perimeter length” value (microglia) was “inhibited; also recorded: prevented” and the IC50 (human LPA1) was 9.9 nM. The EC50 [2] was 4.2 nM.
